# PubChem BioAssay AID330 (DTP/NCI, 2004)
# Where “and” joins values, the source holds several entries; their conditions need not be identical. Equal entries are not always repeated. Toxic doses and inconclusive results are not listed.
# System: P388 leukemia ip, CD2F1 mice, survival T/C
# Test: NCI In Vivo Anticancer Drug Screen. Data for tumor model P388 Leukemia (intraperitoneal) in CD2F1 (CDF1) mice
# Conditions: endpoint: median survival time, higher = longer survival
# How it was run: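 Mice carrying the transplanted tumor received test compound or vehicle. Survival was recorded in each group, and the value is the treated-group measurement divided by that of the vehicle-treated control group.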
# [1] = dose: 50.0 mg/kg/injection, schedule: Q01DX009 (ip), vehicle: saline with Tween-80
# [2] = dose: 100.0 mg/kg/injection, schedule: Q01DX009 (ip), vehicle: saline with Tween-80
# [3] = dose: 200.0 mg/kg/injection, schedule: Q01DX009 (ip), vehicle: saline with Tween-80
# [4] = dose: 60.0 mg/kg/injection, schedule: Q01DX005 (ip), vehicle: Klucel (hydroxypropylcellulose) (HPC)
# [5] = dose: 120.0 mg/kg/injection, schedule: Q01DX005 (ip), vehicle: Klucel (hydroxypropylcellulose) (HPC)
# [6] = dose: 15.0 mg/kg/injection, schedule: Q01DX005 (ip), vehicle: saline with Tween-80
# [7] = dose: 30.0 mg/kg/injection, schedule: Q01DX005 (ip), vehicle: saline with Tween-80
# [8] = dose: 60.0 mg/kg/injection, schedule: Q01DX005 (ip), vehicle: saline with Tween-80
structure (smiles),measurement,setting,value
O=C1c2ccccc2CC1CN1CCCCC1 (configuration not stated),T/C,"dose: 6.25 mg/kg/injection, schedule: Q04DX002 (ip), vehicle: saline",108 % of control
same,T/C,"dose: 12.5 mg/kg/injection, schedule: Q04DX002 (ip), vehicle: saline",100 % of control
same,T/C,"dose: 25.0 mg/kg/injection, schedule: Q04DX002 (ip), vehicle: saline",100 % of control
COCn1ccnc1C(=O)c1ccco1,T/C,[1],103 % of control
same,T/C,[2],111 % of control
same,T/C,[3],94 % of control
CCN1CCN(CCCl)C1=O,T/C,"dose: 200.0 mg/kg/injection, schedule: Q01DX009 (ip), vehicle: saline",160 % of control
O=[N+]([O-])c1ccc(Sc2cccc[n+]2[O-])c2nonc12,T/C,"dose: 1.87 mg/kg/injection, schedule: Q01DX009 (ip), vehicle: Klucel (hydroxypropylcellulose) (HPC)",107 % of control
same,T/C,"dose: 3.75 mg/kg/injection, schedule: Q01DX009 (ip), vehicle: Klucel (hydroxypropylcellulose) (HPC)",99 % of control
same,T/C,"dose: 7.5 mg/kg/injection, schedule: Q01DX009 (ip), vehicle: Klucel (hydroxypropylcellulose) (HPC)",101 % of control
O=C1C2=C(Nc3ccccc3N2)OC1c1ccc2c(c1)OCO2 (configuration not stated),T/C,[4],100 % of control
same,T/C,[5],86 % of control
same,T/C,"dose: 240.0 mg/kg/injection, schedule: Q01DX005 (ip), vehicle: Klucel (hydroxypropylcellulose) (HPC)",89 % of control
O=C1ON=C(COc2ccccc2)/C1=C\c1ccc(Cl)cc1,T/C,[6],105 % of control
same,T/C,[7],101 % of control
same,T/C,[8],104 % of control
O=C1NC(CN2CCCCC2)C(=O)NC1CN1CCCCC1 (configuration not stated),T/C,[4],89 % of control
same,T/C,[5],92 % of control
Cn1c(=O)c(Br)c(Br)c(=O)n1-c1ccc(Br)cc1,T/C,"dose: 42.5 micrograms/kg/injection, schedule: Q01DX009 (ip), vehicle: Klucel (hydroxypropylcellulose) (HPC)",95 % of control
same,T/C,"dose: 85.0 micrograms/kg/injection, schedule: Q01DX009 (ip), vehicle: Klucel (hydroxypropylcellulose) (HPC)",103 % of control
same,T/C,"dose: 170.0 micrograms/kg/injection, schedule: Q01DX009 (ip), vehicle: Klucel (hydroxypropylcellulose) (HPC)",100 % of control
CCOC(=O)/C(C#N)=C/c1ccc(C)o1,T/C,[6],99 % of control
same,T/C,[7],100 % of control
same,T/C,[8],100 % of control and 101 % of control
COc1cc(OCc2ccccc2)c(CC(=O)O)c([N+](=O)[O-])c1,T/C,"dose: 100.0 mg/kg/injection, schedule: Q01DX001 (ip), vehicle: saline with Tween-80",100 % of control
same,T/C,"dose: 200.0 mg/kg/injection, schedule: Q01DX001 (ip), vehicle: saline with Tween-80",100 % of control
same,T/C,"dose: 400.0 mg/kg/injection, schedule: Q01DX001 (ip), vehicle: saline with Tween-80",90 % of control
c1ccc(CSCCSCc2ccccn2)nc1,T/C,"dose: 50.0 mg/kg/injection, schedule: Q01DX005 (ip), vehicle: Klucel (hydroxypropylcellulose) (HPC)",95 % of control
same,T/C,"dose: 100.0 mg/kg/injection, schedule: Q01DX005 (ip), vehicle: Klucel (hydroxypropylcellulose) (HPC)",109 % of control
same,T/C,"dose: 200.0 mg/kg/injection, schedule: Q01DX005 (ip), vehicle: Klucel (hydroxypropylcellulose) (HPC)",103 % of control
COC(C(=O)C(O)C(C)O)C1CC2C=C3C=C(OC4CC(OC5CC(O)C(OC)C(C)O5)C(OC(C)=O)C(C)O4)C(C)C(=O)C3=C(O)C2=C(O)C1OC1CC(OC2CC(OC3CC(C)(O)C(OC(=O)C(C)C)C(C)O3)C(O)C(C)O2)C(O)C(C)O1 (configuration not stated),T/C,"dose: 1.0 micrograms/kg/injection, schedule: Q01DX010 (ip), vehicle: saline",150 % of control
same,T/C,"dose: 4.0 micrograms/kg/injection, schedule: Q01DX010 (ip), vehicle: saline",165 % of control
same,T/C,"dose: 8.0 micrograms/kg/injection, schedule: Q01DX010 (ip), vehicle: saline",175 % of control
same,T/C,"dose: 16.0 micrograms/kg/injection, schedule: Q01DX010 (ip), vehicle: saline",155 % of control
C(=C\c1ccc(-c2nc3ccccc3o2)cc1)/c1ccc(-c2nc3ccccc3o2)cc1,T/C,"dose: 50.0 mg/kg/injection, schedule: Q01DX009 (ip), vehicle: Klucel (hydroxypropylcellulose) (HPC)",100 % of control
same,T/C,"dose: 100.0 mg/kg/injection, schedule: Q01DX009 (ip), vehicle: Klucel (hydroxypropylcellulose) (HPC)",101 % of control
same,T/C,"dose: 200.0 mg/kg/injection, schedule: Q01DX009 (ip), vehicle: Klucel (hydroxypropylcellulose) (HPC)",102 % of control
C=C1C(=O)OC2C1C(OC(=O)/C(C)=C/C)CC(O)(CCl)C1C(OC(C)=O)C=C(C)C21O (configuration not stated),T/C,"dose: 25.0 mg/kg/injection, schedule: Q01DX009 (ip), vehicle: saline with Tween-80",117 % of control
same,T/C,[1],109 % of control
same,T/C,[2],114 % of control
same,T/C,[3],108 % of control
CC(=O)C1C(=O)OC(C)(C)C1C=C(Cl)Cl (configuration not stated),T/C,"dose: 100.0 mg/kg/injection, schedule: Q04DX002 (ip), vehicle: saline with Tween-80",101 % of control
same,T/C,"dose: 200.0 mg/kg/injection, schedule: Q04DX002 (ip), vehicle: saline with Tween-80",107 % of control
same,T/C,"dose: 400.0 mg/kg/injection, schedule: Q04DX002 (ip), vehicle: saline with Tween-80",109 % of control
COc1ccc2oc3cc(Cl)ccc3c(=O)c2c1,T/C,[8],118 % of control
same,T/C,"dose: 120.0 mg/kg/injection, schedule: Q01DX005 (ip), vehicle: saline with Tween-80",101 % of control
same,T/C,"dose: 240.0 mg/kg/injection, schedule: Q01DX005 (ip), vehicle: saline with Tween-80",100 % of control
